Among the test systems are HCC-2998 colon; HCT-15 colon; HL-60(TB) leukemia; HOP-62 NSCLC; NCI/ADR-RES ovarian; SK-MEL-28 melanoma.
What all share (assay): NCI anticancer screen, dose series, 48 h

Where “and” joins values, the source holds several entries; their conditions need not be identical. Equal values may be shown once.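 48-hour exposure; five concentrations; linearly interpolated endpoints. At the GI50, growth is halved. Definition used: TGI = concentration required for complete inhibition of growth.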

`NC(=S)N/N=C1\c2ccccc2-c2c(F)c(F)c(F)c(F)c21`: the GI50 in the assay with HCC-2998 colon is 3.11 µM; in the assay with HCT-15 colon, 2.05 µM; in the assay on HL-60(TB) leukemia it was 3.58 µM; in the assay on HOP-62 NSCLC, 2.71 µM; in the assay with NCI/ADR-RES ovarian, 5.77 µM; in the assay on SK-MEL-28 melanoma, 2.99 µM. Also, the TGI in the assay with HCC-2998 colon is 9.37 µM; with HCT-15 colon, 4.61 µM; in the assay with HL-60(TB) leukemia, 16 µM; in the assay on HOP-62 NSCLC it was 6.72 µM; in the assay on NCI/ADR-RES ovarian, 16.7 µM; with SK-MEL-28 melanoma, 8.87 µM.
As to `Cc1ccc(C=C2C(Cl)=C(Cl)C(Cl)=C2Cl)cc1`, the GI50 is 1.47 µM in the assay on HCC-2998 colon; 1.33 µM in the assay with HCT-15 colon; 0.363 µM in the assay with HL-60(TB) leukemia; 2.13 µM with HOP-62 NSCLC; 0.324 µM with NCI/ADR-RES ovarian; 1.25 µM in the assay on SK-MEL-28 melanoma. Further, the TGI in the assay on HCC-2998 colon was determined as 2.93 µM; with HCT-15 colon, 4.88 µM; in the assay on HL-60(TB) leukemia, 1.53 µM; in the assay on HOP-62 NSCLC, 4.44 µM; in the assay on NCI/ADR-RES ovarian, 1.52 µM; with SK-MEL-28 melanoma, 2.64 µM.
For `C=C1C(=O)O[C@H]2[C@H](OC(C)=O)[C@@H](C)CCCC3(C)OC3CCC3(CO3)[C@H](O)C[C@@H]12` (some centres not stated), the GI50 with HCC-2998 colon is 1.99 µM; in the assay with HCT-15 colon, 10.2 µM; in the assay with HOP-62 NSCLC, 21.4 µM; with SK-MEL-28 melanoma, 8.36 µM. The TGI is 7.21 µM in the assay on HCC-2998 colon, 21.8 µM in the assay on HCT-15 colon, 43 µM in the assay on HOP-62 NSCLC and 41.6 µM in the assay with SK-MEL-28 melanoma.
`COc1cc(CNCCN2C(=O)c3ccc4c5c(ccc(c35)C2=O)C(=O)N(CCNCc2cc(OC)c(OC)c(OC)c2)C4=O)cc(OC)c1OC`: in the assay on HOP-62 NSCLC, the GI50 was 0.28 µM and the TGI is 0.999 µM. Besides, in the assay on NCI/ADR-RES ovarian, the GI50 is 2.05 µM and the TGI turned out to be 50 µM.
Regarding `COc1cccc(-c2cc(=O)c3cc(N4CCOCC4)ccc3[nH]2)c1`, the GI50 in the assay on HCC-2998 colon was 0.0236 µM; with HCT-15 colon, 0.0328 µM; with HOP-62 NSCLC, 0.0791 µM; in the assay on SK-MEL-28 melanoma, 0.0248 µM. Besides, the TGI in the assay with HCC-2998 colon was 0.433 µM and 0.0581 µM; with HCT-15 colon it was 0.227 µM and 0.575 µM; with HL-60(TB) leukemia, 0.0593 µM and 0.0492 µM; with HOP-62 NSCLC, > 100 µM; in the assay with NCI/ADR-RES ovarian, 0.271 µM and 0.751 µM.
On to `COc1ccc(/C=C2\COc3ccc(O)c(O)c3C2=O)c(OC)c1OC`, for which the GI50 in the assay with HCC-2998 colon is 2.18 µM; in the assay with HCT-15 colon, 1.74 µM; with HL-60(TB) leukemia, 2.4 µM; with HOP-62 NSCLC it was 3.12 µM; in the assay with SK-MEL-28 melanoma, 2.63 µM. Besides, the TGI is 4.48 µM in the assay with HCC-2998 colon; 5.51 µM in the assay on HCT-15 colon; 6.71 µM in the assay on HL-60(TB) leukemia; 20 µM in the assay on HOP-62 NSCLC; 7.37 µM in the assay on SK-MEL-28 melanoma.
For `COc1ccc(CCN(CC(=O)N(CC(N)=O)C2CCC[C@@H]2OCc2ccccc2)C(=O)CN(C(=O)CN(CCc2ccc(Cl)cc2)C(=O)CN(C(=O)CN(C)Cc2ccccc2F)[C@H](C)C2CCCCC2)[C@H](C)C2CCCCC2)cc1OC` (some centres not stated), the GI50 in the assay with HCC-2998 colon is 1.61 µM; in the assay on HCT-15 colon, 2.77 µM; in the assay on HL-60(TB) leukemia it was 1.21 µM; in the assay with HOP-62 NSCLC, 3.02 µM; in the assay with NCI/ADR-RES ovarian it was > 50 µM; in the assay with SK-MEL-28 melanoma it was 1.89 µM. In addition, the TGI is > 50 µM with HCC-2998 colon; > 50 µM in the assay with HCT-15 colon; 3.24 µM with HL-60(TB) leukemia; > 50 µM with HOP-62 NSCLC; > 50 µM with NCI/ADR-RES ovarian; > 50 µM with SK-MEL-28 melanoma.
As for `CN(C)CC(=O)Nc1ccc2ncnc(Nc3ccc(Oc4cccc(C(F)(F)F)c4)c(Cl)c3)c2c1`, the GI50 was 1.66 µM in the assay with HCC-2998 colon; 1.48 µM in the assay on HCT-15 colon; 2.09 µM in the assay with HL-60(TB) leukemia; 2.09 µM in the assay on HOP-62 NSCLC; 3.06 µM in the assay with NCI/ADR-RES ovarian; 1.74 µM in the assay with SK-MEL-28 melanoma. In addition, the TGI with HCC-2998 colon was 3.19 µM; in the assay with HCT-15 colon, 3.1 µM; with HL-60(TB) leukemia, 4.94 µM; in the assay on HOP-62 NSCLC it was 5.71 µM; in the assay with NCI/ADR-RES ovarian, 13.2 µM; in the assay on SK-MEL-28 melanoma it was 3.22 µM.
As to `Cn1cc(C2=C(c3cn(-c4ccccc4)c4ccccc34)C(=O)NC2=O)c2ccccc21`, the GI50 was 24.4 µM in the assay on HCC-2998 colon; 10.7 µM in the assay with HCT-15 colon; 8.91 µM in the assay with HL-60(TB) leukemia; > 25 µM with HOP-62 NSCLC; 11.2 µM in the assay with NCI/ADR-RES ovarian; 22.3 µM with SK-MEL-28 melanoma. Further, the TGI in the assay on HCC-2998 colon, in the assay on HCT-15 colon, in the assay with HL-60(TB) leukemia, in the assay on HOP-62 NSCLC, in the assay on NCI/ADR-RES ovarian and in the assay on SK-MEL-28 melanoma was > 25 µM each time.
Turning to `CC1(C)N=C(N)N=C(N)N1c1ccc(OCCCNC(=O)Nc2cccc(S(=O)(=O)F)c2)c(Cl)c1`, the GI50 in the assay on HCC-2998 colon is 8.55 µM; in the assay with HCT-15 colon it was 29.2 µM; in the assay with HL-60(TB) leukemia, 0.441 µM; in the assay on HOP-62 NSCLC, 6.04 µM; in the assay with NCI/ADR-RES ovarian it was > 100 µM; in the assay with SK-MEL-28 melanoma it was 8.79 µM. Moreover, the TGI in the assay on HCC-2998 colon, with HCT-15 colon, in the assay with HL-60(TB) leukemia, with HOP-62 NSCLC, in the assay with NCI/ADR-RES ovarian and in the assay with SK-MEL-28 melanoma was > 100 µM in each case.
In the case of `COC(=O)c1cc2oc(/C=C3/SC(=S)N(N)C3=O)cc2n1Cc1ccccc1`, the GI50 in the assay with HCC-2998 colon was 3.89 µM; in the assay on HCT-15 colon it was 7.65 µM; in the assay on HL-60(TB) leukemia, > 15.7 µM; in the assay on HOP-62 NSCLC, 6.59 µM; in the assay on NCI/ADR-RES ovarian, 4.61 µM; in the assay on SK-MEL-28 melanoma it was 7.48 µM. Also, the TGI in the assay on HCC-2998 colon is 19.1 µM; in the assay with HCT-15 colon, > 29.9 µM; in the assay with HL-60(TB) leukemia it was > 100 µM; in the assay on HOP-62 NSCLC it was 25.6 µM; in the assay on NCI/ADR-RES ovarian, 26.9 µM; with SK-MEL-28 melanoma it was > 30.1 µM.
On to `CCCCCCn1c(SC)nc(COC(=O)NC)c1COC(=O)NC`, for which the TGI with HCT-15 colon was > 100 µM; with HL-60(TB) leukemia it was 56 µM; with HOP-62 NSCLC it was 37.1 µM; in the assay on NCI/ADR-RES ovarian, 69.3 µM; in the assay on SK-MEL-28 melanoma, 32.4 µM.
Regarding `O=c1cnnc(N/N=C/c2ccccc2O)[nH]1`, the GI50 in the assay on HCC-2998 colon was 3.02 µM; in the assay with HCT-15 colon, 0.539 µM; in the assay with HL-60(TB) leukemia, 2.91 µM; with HOP-62 NSCLC it was 6.01 µM; with NCI/ADR-RES ovarian, 1.28 µM; in the assay with SK-MEL-28 melanoma, 4.54 µM. Further, the TGI in the assay with HCC-2998 colon was > 100 µM; with HCT-15 colon it was > 100 µM; with HL-60(TB) leukemia, 21.8 µM; in the assay with HOP-62 NSCLC it was 53.7 µM; in the assay with NCI/ADR-RES ovarian, > 64.5 µM; with SK-MEL-28 melanoma it was 53.2 µM.
On to `O=C(c1ccccc1Cl)n1oc2ccccc2c1=O`, for which the TGI is > 100 µM in the assay with HCT-15 colon; 51 µM in the assay on HL-60(TB) leukemia; > 100 µM in the assay on HOP-62 NSCLC; > 100 µM with NCI/ADR-RES ovarian; > 100 µM in the assay on SK-MEL-28 melanoma.
Take `Oc1ccc2ccccc2c1N=Nc1cc(Cl)ccc1Cl`: the TGI is > 50 µM with HCT-15 colon; > 50 µM with HL-60(TB) leukemia; 20.8 µM in the assay with HOP-62 NSCLC; > 50 µM with NCI/ADR-RES ovarian; > 50 µM with SK-MEL-28 melanoma.
Turning to `CC1=C(C)C(=O)O[C@@H]([C@](C)(O)[C@]2(O)CC[C@@]3(O)[C@@H]4C[C@H](O)[C@]5(O)[C@@H](O)C=CC(=O)[C@]5(C)[C@H]4CC[C@]23C)C1`, the TGI with HCC-2998 colon is > 100 µM; in the assay with HCT-15 colon it was > 100 µM; in the assay on HL-60(TB) leukemia, 56.8 µM; in the assay on HOP-62 NSCLC, > 100 µM; with SK-MEL-28 melanoma it was > 100 µM.
Regarding `O=C(O)c1ccc(C(O)(c2ccccc2)c2ccccc2)cc1`, the TGI in the assay with HCT-15 colon, in the assay with HL-60(TB) leukemia, in the assay on HOP-62 NSCLC, in the assay with NCI/ADR-RES ovarian and in the assay with SK-MEL-28 melanoma was > 100 µM throughout.
With `CCCCNS(=O)(=O)c1n[nH]c(=O)[nH]c1=O`, the TGI with HCT-15 colon, in the assay with HL-60(TB) leukemia, in the assay with HOP-62 NSCLC, in the assay on NCI/ADR-RES ovarian and with SK-MEL-28 melanoma was > 100 µM each time.
`COc1cc([N+](=O)[O-])c(OC)cc1-c1nc2sc(C)cn2c1/C(N)=N/C(=N)N`: the GI50 in the assay on HCT-15 colon is > 100 µM; in the assay on HL-60(TB) leukemia, > 100 µM; in the assay with HOP-62 NSCLC, 71.3 µM; in the assay with NCI/ADR-RES ovarian it was > 100 µM; in the assay on SK-MEL-28 melanoma, 7.02 µM. The TGI in the assay on HCT-15 colon, with HL-60(TB) leukemia, with HOP-62 NSCLC, with NCI/ADR-RES ovarian and in the assay on SK-MEL-28 melanoma was > 100 µM throughout.
Regarding `COC(=O)c1ccc(/C=C(\c2ccc([N+](=O)[O-])o2)S(=O)(=O)c2ccc(NC(C)=O)cc2)o1`, the TGI with HCT-15 colon was 6.83 µM; in the assay on HL-60(TB) leukemia, 8.69 µM; in the assay on HOP-62 NSCLC, 33.4 µM; in the assay with NCI/ADR-RES ovarian, 30.5 µM; in the assay with SK-MEL-28 melanoma, 17.6 µM.
Regarding `Cc1cnc2oc3ccc(O)cc3c2c1-c1ccccc1`, the GI50 in the assay with HCT-15 colon was 27.2 µM; with HL-60(TB) leukemia it was > 100 µM; in the assay on HOP-62 NSCLC, 27.3 µM; with NCI/ADR-RES ovarian, 28.4 µM; in the assay on SK-MEL-28 melanoma, > 100 µM. In addition, the TGI in the assay on HCT-15 colon was > 100 µM; in the assay on HL-60(TB) leukemia it was > 100 µM; in the assay on HOP-62 NSCLC, 83.4 µM; in the assay with NCI/ADR-RES ovarian, > 100 µM; with SK-MEL-28 melanoma, > 100 µM.
